{
  "source": "patent US6814969B2",
  "about": "“Immunologically significant herpes simplex virus antigens and methods for using same” (University of Washington, priority 2001, dated 2004)",
  "key": {"[1]": {"tested_on": "CD8 CTL clone 5491.2000.48", "assay": "51Cr release CTL assay, CD8 clone 5491.2000.48", "format": "cell-based, human", "conditions": "autologous targets infected with wild-type HSV-2 in the presence of 5 μg/ml actinomycin D, E:T 20:1"}, "[2]": {"tested_on": "CD8 CTL clone 5101.1999.23", "assay": "51Cr release CTL assay, CD8 clone 5101.1999.23", "format": "cell-based, human", "conditions": "autologous targets infected with wild-type HSV-2 in the presence of 5 μg/ml actinomycin D, E:T 20:1"}, "[3]": {"tested_on": "CD8 CTL clone 1874.1991.22", "assay": "51Cr release CTL assay, CD8 clone 1874.1991.22", "format": "cell-based, human", "conditions": "autologous targets infected with wild-type HSV-2 in the presence of 5 μg/ml actinomycin D, E:T 20:1"}, "CD4+ T cell clone": {"tested_on": "CD4+ T cell clone", "assay": "Reactivity with a CD4+ T cell clone (HLA DRBI*1501)", "format": "cell-based, human", "conditions": "in association with HLA class II molecule DRBI*1501", "text": "This epitope is recognized in association with the HLA class II molecule DRBI*1501, which is fairly prevalent in most human populations."}, "[4]": {"tested_on": "genital HSV-2 lesion-infiltrating lymphocytes", "conditions": "four of seven patients; Koelle et al., 1998; cited from earlier work"}, "B1 cell line": {"tested_on": "B1 cell line", "assay": "Proliferation of short-term HSV-specific B1 cell lines from seven HSV-2 infected adults", "format": "cell-based, human", "conditions": "seven HSV-2 infected immunocompetent adults; positive = stimulation index >= 4.0", "protocol": "For each subject, PBMC were isolated and plated at 2×10^6 cells/well in 2 mls of T-cell medium in 24-well plates and stimulated in vitro with a 1:500 dilution of UV-inactivated HSV-2 strain 333 for five days. At that time, 40 units/ml recombinant human IL-2 was added for an additional five to six days, giving rise to a short-term, HSV-specific cell line termed a B1 cell line.\nReactivity to individual HSV-2 proteins was assessed as follows. Proliferation assays were set up on 96-well round bottom microtiter plates, and each condition was performed in triplicate. To each well, 1×10^5 autologous irradiated (3300 rad gamma) PBMC were added as antigen presenting cells. To each well, 1×10^4 B1 cells were added. The following control substances were added: media, UV-treated mock virus preparation diluted 1:500, UV-treated HSV-2 strain 333 diluted 1:500, glycoproteins B or D or VP16 protein of HSV-2 (purified) at 4 micrograms per ml final concentration. The response to UV-treated HSV-2 was expected to be positive and served as a positive control for the viability and overall specificity of the cells. […]\nPositive responses were scored if the stimulation index (mean cpm ^3H thymidine incorporation for test antigen/mean cpm ^3H thymidine incorporation for relevant control antigen) was greater than or equal to 4.0. […]"}},
  "note": "Starred links: 1 amine or outer side, 2 acyl side, 3 side chain; linkers in the order of their positions; H or OH if unused. Positions of bridges follow the written chain, without caps; N, C: chain ends. Non-standard residues stand in square brackets, D forms with d. Residues, ends and D or L forms follow the SMILES beside them. Chains are numbered I, II in the order given. Actinocin(9to1) = Cc1c2oc3c(C)ccc(C(=O)[*:1])c3nc-2c(C(=O)[*:2])c(N)c1=O; NMeV = CN[C@H](C(=O)O)C(C)C; Sar = CNCC(=O)O",
  "data": [
    {"molecule": "Cc1c2oc3c(C)ccc(C(=O)N[C@@H]4C(=O)N[C@H](C(C)C)C(=O)N5CCC[C@H]5C(=O)N(C)CC(=O)N(C)[C@@H](C(C)C)C(=O)O[C@@H]4C)c3nc-2c(C(=O)N[C@@H]2C(=O)N[C@H](C(C)C)C(=O)N3CCC[C@H]3C(=O)N(C)CC(=O)N(C)[C@@H](C(C)C)C(=O)O[C@@H]2C)c(N)c1=O", "note": "[actinomycin D] (I: T[dV]P[Sar][NMeV] / II: T[dV]P[Sar][NMeV]; ester I:1-I:C, II:1-II:C; linker I:N-II:N via Actinocin(9to1))", "values": [
      {"measurement": "percent specific release", "setting": "[1]", "value": 49.2, "unit": "%"},
      {"measurement": "percent specific release", "setting": "[2]", "value": 35.8, "unit": "%"},
      {"measurement": "percent specific release", "setting": "[3]", "value": 45.1, "unit": "%"}
    ]},
    {"molecule": "RLRELNHIREHLNLPLVRSA [VP16 288-307]", "values": [
      {"measurement": "reactivity with a CD4+ T cell clone", "setting": "CD4+ T cell clone", "value": "reactivity"}
    ]},
    {"molecule": "VP16 of HSV-2: VP16 protein of HSV-2 (purified) (protein) MDLLVDDLFADADGVSPPPPRPAGGPKNTPAAPPLYATGRLSQAQLMPSPPMPVPPAALFNRLLDDLGFSAGPALCTMLDTWNEDLFSGFPTNADMYRECKFLSTLPSDVIDWGDAHVPERSPIDIRAHGDVAFPTLPATRDELPSYYEAMAQFFRGELRAREESYRTVLANFCSALYRYLRASVRQLHRQAHMRGRNRDLREMLRTTIADRYYRETARLARVLFLHLYLFLSREILWAAYAEQMMRPDLFDGLCCDLESWRQLACLFQPLMFINGSLTVRGVPVEARRLRELNHIREHLNLPLVRSAAAEEPGAPLTTPPVLQGNQARSSGYFMLLIRAKLDSYSSVATSEGESVMREHAYSRGRTRNNYGSTIEGLLDLPDDDDAPAEAGLVAPRMSFLSAGQRPRRLSTTAPITDVSLGDELRLDGEEVDMTPADALDDFDLEMLGDVESPSPGMTHDPVSYGALDVDDFEFEQMFTDAMGIDDFGG", "values": [
      {"measurement": "patients with proliferative responses in bulk cultures of lesion-infiltrating lymphocytes", "setting": "[4]", "value": 57, "unit": "%"},
      {"measurement": "% (subjects with positive response)", "setting": "B1 cell line", "value": 0, "unit": "%"},
      {"measurement": "n (subjects with positive response)", "setting": "B1 cell line", "value": 0}
    ]}
  ]
}
